# Test system: Sclerotinia sclerotiorum
# Assay: Antifungal activity against Sclerotinia sclerotiorum assessed as growth inhibition at 10 mg/L
# Assay type: functional
# Settings: read-out: GI
row,Structure (SMILES),inhibition of growth at 10 µg/mL
1,CSc1nn(-c2ccccc2)c2nc3n(-c4ccccc4)cnn3c(=O)c12,83%
2,CSc1nn(-c2ccccc2)c2nc3n(-c4cccc(F)c4)cnn3c(=O)c12,83%
3,Nn1c(Nc2ccccc2F)nc2c(c(SCc3ccccc3)nn2-c2ccccc2)c1=O,33%
4,CSc1nn(-c2ccccc2)c2nc3n(-c4cccc(Cl)c4)cnn3c(=O)c12,82%
5,Nn1c(Nc2ccccc2)nc2c(c(SCc3ccccc3)nn2-c2ccccc2)c1=O,31%
6,CSc1nn(-c2ccccc2)c2nc3n(-c4ccccc4F)cnn3c(=O)c12,19%
7,Nn1c(Nc2cccc(F)c2)nc2c(c(SCc3ccccc3)nn2-c2ccccc2)c1=O,40%
8,CSc1nn(-c2ccccc2)c2nc(Nc3cccc(F)c3)n(N)c(=O)c12,75%
9,O=c1c2c(SCc3ccccc3)nn(-c3ccccc3)c2nc2n(-c3ccc(F)cc3)cnn12,32%
10,CSc1nn(-c2ccccc2)c2nc(Nc3cccc(Cl)c3)n(N)c(=O)c12,76%
11,CSc1nn(-c2ccccc2)c2nc(Nc3ccccc3)n(N)c(=O)c12,51%
12,CSc1nn(-c2ccccc2)c2nc(Nc3cccc(C)c3)n(N)c(=O)c12,52%
13,O=c1c2c(SCc3ccccc3)nn(-c3ccccc3)c2nc2n(-c3ccccc3)cnn12,67%
14,CSc1nn(-c2ccccc2)c2nc3n(-c4ccc(F)cc4)cnn3c(=O)c12,70%
15,O=c1c2c(SCc3ccccc3)nn(-c3ccccc3)c2nc2n(-c3cccc(F)c3)cnn12,5%
16,CSc1nn(-c2ccccc2)c2nc3n(-c4cccc(C)c4)cnn3c(=O)c12,73%
17,CSc1nn(-c2ccccc2)c2nc(Nc3ccccc3F)n(N)c(=O)c12,73%
18,Nn1c(Nc2ccc(F)cc2)nc2c(c(SCc3ccccc3)nn2-c2ccccc2)c1=O,52%
19,CSc1nn(-c2ccccc2)c2nc(Nc3ccc(F)cc3)n(N)c(=O)c12,72%
20,O=c1c2c(SCc3ccccc3)nn(-c3ccccc3)c2nc2n(-c3ccccc3F)cnn12,75%

# Test system: Botrytis cinerea
# Assay: Antifungal activity against Botryotinia fuckeliana assessed as growth inhibition at 10 mg/L
# Assay type: functional
# Settings: read-out: GI
row,Structure (SMILES),inhibition of growth at 10 µg/mL
1,CSc1nn(-c2ccccc2)c2nc3n(-c4ccccc4)cnn3c(=O)c12,70%
2,CSc1nn(-c2ccccc2)c2nc3n(-c4cccc(F)c4)cnn3c(=O)c12,70%
3,Nn1c(Nc2ccccc2F)nc2c(c(SCc3ccccc3)nn2-c2ccccc2)c1=O,18%
4,CSc1nn(-c2ccccc2)c2nc3n(-c4cccc(Cl)c4)cnn3c(=O)c12,71%
5,Nn1c(Nc2ccccc2)nc2c(c(SCc3ccccc3)nn2-c2ccccc2)c1=O,12%
6,CSc1nn(-c2ccccc2)c2nc3n(-c4ccccc4F)cnn3c(=O)c12,31%
7,Nn1c(Nc2cccc(F)c2)nc2c(c(SCc3ccccc3)nn2-c2ccccc2)c1=O,20%
8,CSc1nn(-c2ccccc2)c2nc(Nc3cccc(F)c3)n(N)c(=O)c12,56%
9,O=c1c2c(SCc3ccccc3)nn(-c3ccccc3)c2nc2n(-c3ccc(F)cc3)cnn12,30%
10,CSc1nn(-c2ccccc2)c2nc(Nc3cccc(Cl)c3)n(N)c(=O)c12,73%
11,CSc1nn(-c2ccccc2)c2nc(Nc3ccccc3)n(N)c(=O)c12,3%
12,CSc1nn(-c2ccccc2)c2nc(Nc3cccc(C)c3)n(N)c(=O)c12,36%
13,O=c1c2c(SCc3ccccc3)nn(-c3ccccc3)c2nc2n(-c3ccccc3)cnn12,49%
14,CSc1nn(-c2ccccc2)c2nc3n(-c4ccc(F)cc4)cnn3c(=O)c12,45%
15,O=c1c2c(SCc3ccccc3)nn(-c3ccccc3)c2nc2n(-c3cccc(F)c3)cnn12,5%
16,CSc1nn(-c2ccccc2)c2nc3n(-c4cccc(C)c4)cnn3c(=O)c12,74%
17,CSc1nn(-c2ccccc2)c2nc(Nc3ccccc3F)n(N)c(=O)c12,69%
18,Nn1c(Nc2ccc(F)cc2)nc2c(c(SCc3ccccc3)nn2-c2ccccc2)c1=O,12%
19,CSc1nn(-c2ccccc2)c2nc(Nc3ccc(F)cc3)n(N)c(=O)c12,9%
20,O=c1c2c(SCc3ccccc3)nn(-c3ccccc3)c2nc2n(-c3ccccc3F)cnn12,27%

# Test system: Sclerotinia sclerotiorum
# Assay: Antifungal activity against Sclerotinia sclerotiorum assessed as growth inhibition at 50 mg/L
# Assay type: functional
# Settings: read-out: GI
row,Structure (SMILES),inhibition of growth at 50 µg/mL
1,CSc1nn(-c2ccccc2)c2nc3n(-c4ccccc4)cnn3c(=O)c12,100%
2,CSc1nn(-c2ccccc2)c2nc3n(-c4cccc(F)c4)cnn3c(=O)c12,100%
3,Nn1c(Nc2ccccc2F)nc2c(c(SCc3ccccc3)nn2-c2ccccc2)c1=O,71%
4,CSc1nn(-c2ccccc2)c2nc3n(-c4cccc(Cl)c4)cnn3c(=O)c12,100%
5,Nn1c(Nc2ccccc2)nc2c(c(SCc3ccccc3)nn2-c2ccccc2)c1=O,72%
6,c1ccc2[nH]c(-c3cscn3)nc2c1 [THIABENDAZOLE],100%
7,CSc1nn(-c2ccccc2)c2nc3n(-c4ccccc4F)cnn3c(=O)c12,50%
8,Nn1c(Nc2cccc(F)c2)nc2c(c(SCc3ccccc3)nn2-c2ccccc2)c1=O,82%
9,CSc1nn(-c2ccccc2)c2nc(Nc3cccc(F)c3)n(N)c(=O)c12,96%
10,O=c1c2c(SCc3ccccc3)nn(-c3ccccc3)c2nc2n(-c3ccc(F)cc3)cnn12,75%
11,CSc1nn(-c2ccccc2)c2nc(Nc3cccc(Cl)c3)n(N)c(=O)c12,98%
12,CSc1nn(-c2ccccc2)c2nc(Nc3ccccc3)n(N)c(=O)c12,84%
13,CSc1nn(-c2ccccc2)c2nc(Nc3cccc(C)c3)n(N)c(=O)c12,86%
14,O=c1c2c(SCc3ccccc3)nn(-c3ccccc3)c2nc2n(-c3ccccc3)cnn12,93%
15,CSc1nn(-c2ccccc2)c2nc3n(-c4ccc(F)cc4)cnn3c(=O)c12,93%
16,O=c1c2c(SCc3ccccc3)nn(-c3ccccc3)c2nc2n(-c3cccc(F)c3)cnn12,29%
17,CSc1nn(-c2ccccc2)c2nc3n(-c4cccc(C)c4)cnn3c(=O)c12,98%
18,CSc1nn(-c2ccccc2)c2nc(Nc3ccccc3F)n(N)c(=O)c12,97%
19,Nn1c(Nc2ccc(F)cc2)nc2c(c(SCc3ccccc3)nn2-c2ccccc2)c1=O,83%
20,CSc1nn(-c2ccccc2)c2nc(Nc3ccc(F)cc3)n(N)c(=O)c12,94%
21,O=c1c2c(SCc3ccccc3)nn(-c3ccccc3)c2nc2n(-c3ccccc3F)cnn12,96%

# Test system: Fusarium graminearum
# Assay: Antifungal activity against Fusarium graminearum assessed as growth inhibition at 50 mg/L
# Assay type: functional
# Settings: read-out: GI
row,Structure (SMILES),inhibition of growth at 50 µg/mL
1,CSc1nn(-c2ccccc2)c2nc3n(-c4ccccc4)cnn3c(=O)c12,66%
2,CSc1nn(-c2ccccc2)c2nc3n(-c4cccc(F)c4)cnn3c(=O)c12,74%
3,Nn1c(Nc2ccccc2F)nc2c(c(SCc3ccccc3)nn2-c2ccccc2)c1=O,40%
4,CSc1nn(-c2ccccc2)c2nc3n(-c4cccc(Cl)c4)cnn3c(=O)c12,74%
5,Nn1c(Nc2ccccc2)nc2c(c(SCc3ccccc3)nn2-c2ccccc2)c1=O,29%
6,c1ccc2[nH]c(-c3cscn3)nc2c1 [THIABENDAZOLE],100%
7,CSc1nn(-c2ccccc2)c2nc3n(-c4ccccc4F)cnn3c(=O)c12,26%
8,Nn1c(Nc2cccc(F)c2)nc2c(c(SCc3ccccc3)nn2-c2ccccc2)c1=O,46%
9,CSc1nn(-c2ccccc2)c2nc(Nc3cccc(F)c3)n(N)c(=O)c12,43%
10,O=c1c2c(SCc3ccccc3)nn(-c3ccccc3)c2nc2n(-c3ccc(F)cc3)cnn12,37%
11,CSc1nn(-c2ccccc2)c2nc(Nc3cccc(Cl)c3)n(N)c(=O)c12,57%
12,CSc1nn(-c2ccccc2)c2nc(Nc3ccccc3)n(N)c(=O)c12,14%
13,CSc1nn(-c2ccccc2)c2nc(Nc3cccc(C)c3)n(N)c(=O)c12,46%
14,O=c1c2c(SCc3ccccc3)nn(-c3ccccc3)c2nc2n(-c3ccccc3)cnn12,60%
15,CSc1nn(-c2ccccc2)c2nc3n(-c4ccc(F)cc4)cnn3c(=O)c12,49%
16,O=c1c2c(SCc3ccccc3)nn(-c3ccccc3)c2nc2n(-c3cccc(F)c3)cnn12,34%
17,CSc1nn(-c2ccccc2)c2nc3n(-c4cccc(C)c4)cnn3c(=O)c12,50%
18,CSc1nn(-c2ccccc2)c2nc(Nc3ccccc3F)n(N)c(=O)c12,51%
19,Nn1c(Nc2ccc(F)cc2)nc2c(c(SCc3ccccc3)nn2-c2ccccc2)c1=O,34%
20,CSc1nn(-c2ccccc2)c2nc(Nc3ccc(F)cc3)n(N)c(=O)c12,20%
21,O=c1c2c(SCc3ccccc3)nn(-c3ccccc3)c2nc2n(-c3ccccc3F)cnn12,37%

# Test system: Pyricularia oryzae
# Assay: Antifungal activity against Magnaporthe oryzae assessed as growth inhibition at 50 mg/L
# Assay type: functional
# Settings: read-out: GI
row,Structure (SMILES),inhibition of growth at 50 µg/mL
1,CSc1nn(-c2ccccc2)c2nc3n(-c4ccccc4)cnn3c(=O)c12,80%
2,CSc1nn(-c2ccccc2)c2nc3n(-c4cccc(F)c4)cnn3c(=O)c12,29%
3,Nn1c(Nc2ccccc2F)nc2c(c(SCc3ccccc3)nn2-c2ccccc2)c1=O,14%
4,CSc1nn(-c2ccccc2)c2nc3n(-c4cccc(Cl)c4)cnn3c(=O)c12,57%
5,Nn1c(Nc2ccccc2)nc2c(c(SCc3ccccc3)nn2-c2ccccc2)c1=O,50%
6,c1ccc2[nH]c(-c3cscn3)nc2c1 [THIABENDAZOLE],87%
7,CSc1nn(-c2ccccc2)c2nc3n(-c4ccccc4F)cnn3c(=O)c12,5%
8,Nn1c(Nc2cccc(F)c2)nc2c(c(SCc3ccccc3)nn2-c2ccccc2)c1=O,14%
9,CSc1nn(-c2ccccc2)c2nc(Nc3cccc(F)c3)n(N)c(=O)c12,43%
10,O=c1c2c(SCc3ccccc3)nn(-c3ccccc3)c2nc2n(-c3ccc(F)cc3)cnn12,43%
11,CSc1nn(-c2ccccc2)c2nc(Nc3cccc(Cl)c3)n(N)c(=O)c12,96%
12,CSc1nn(-c2ccccc2)c2nc(Nc3ccccc3)n(N)c(=O)c12,36%
13,CSc1nn(-c2ccccc2)c2nc(Nc3cccc(C)c3)n(N)c(=O)c12,14%
14,O=c1c2c(SCc3ccccc3)nn(-c3ccccc3)c2nc2n(-c3ccccc3)cnn12,29%
15,CSc1nn(-c2ccccc2)c2nc3n(-c4ccc(F)cc4)cnn3c(=O)c12,9%
16,O=c1c2c(SCc3ccccc3)nn(-c3ccccc3)c2nc2n(-c3cccc(F)c3)cnn12,0%
17,CSc1nn(-c2ccccc2)c2nc3n(-c4cccc(C)c4)cnn3c(=O)c12,70%
18,CSc1nn(-c2ccccc2)c2nc(Nc3ccccc3F)n(N)c(=O)c12,62%
19,Nn1c(Nc2ccc(F)cc2)nc2c(c(SCc3ccccc3)nn2-c2ccccc2)c1=O,29%
20,CSc1nn(-c2ccccc2)c2nc(Nc3ccc(F)cc3)n(N)c(=O)c12,43%
21,O=c1c2c(SCc3ccccc3)nn(-c3ccccc3)c2nc2n(-c3ccccc3F)cnn12,14%

# Test system: Botrytis cinerea
# Assay: Antifungal activity against Botryotinia fuckeliana assessed as growth inhibition at 50 mg/L
# Assay type: functional
# Settings: read-out: GI
row,Structure (SMILES),inhibition of growth at 50 µg/mL
1,CSc1nn(-c2ccccc2)c2nc3n(-c4ccccc4)cnn3c(=O)c12,99%
2,CSc1nn(-c2ccccc2)c2nc3n(-c4cccc(F)c4)cnn3c(=O)c12,91%
3,Nn1c(Nc2ccccc2F)nc2c(c(SCc3ccccc3)nn2-c2ccccc2)c1=O,64%
4,CSc1nn(-c2ccccc2)c2nc3n(-c4cccc(Cl)c4)cnn3c(=O)c12,99%
5,Nn1c(Nc2ccccc2)nc2c(c(SCc3ccccc3)nn2-c2ccccc2)c1=O,60%
6,c1ccc2[nH]c(-c3cscn3)nc2c1 [THIABENDAZOLE],100%
7,CSc1nn(-c2ccccc2)c2nc3n(-c4ccccc4F)cnn3c(=O)c12,60%
8,Nn1c(Nc2cccc(F)c2)nc2c(c(SCc3ccccc3)nn2-c2ccccc2)c1=O,69%
9,CSc1nn(-c2ccccc2)c2nc(Nc3cccc(F)c3)n(N)c(=O)c12,87%
10,O=c1c2c(SCc3ccccc3)nn(-c3ccccc3)c2nc2n(-c3ccc(F)cc3)cnn12,67%
11,CSc1nn(-c2ccccc2)c2nc(Nc3cccc(Cl)c3)n(N)c(=O)c12,99%
12,CSc1nn(-c2ccccc2)c2nc(Nc3ccccc3)n(N)c(=O)c12,13%
13,CSc1nn(-c2ccccc2)c2nc(Nc3cccc(C)c3)n(N)c(=O)c12,71%
14,O=c1c2c(SCc3ccccc3)nn(-c3ccccc3)c2nc2n(-c3ccccc3)cnn12,73%
15,CSc1nn(-c2ccccc2)c2nc3n(-c4ccc(F)cc4)cnn3c(=O)c12,71%
16,O=c1c2c(SCc3ccccc3)nn(-c3ccccc3)c2nc2n(-c3cccc(F)c3)cnn12,29%
17,CSc1nn(-c2ccccc2)c2nc3n(-c4cccc(C)c4)cnn3c(=O)c12,97%
18,CSc1nn(-c2ccccc2)c2nc(Nc3ccccc3F)n(N)c(=O)c12,93%
19,Nn1c(Nc2ccc(F)cc2)nc2c(c(SCc3ccccc3)nn2-c2ccccc2)c1=O,55%
20,CSc1nn(-c2ccccc2)c2nc(Nc3ccc(F)cc3)n(N)c(=O)c12,45%
21,O=c1c2c(SCc3ccccc3)nn(-c3ccccc3)c2nc2n(-c3ccccc3F)cnn12,60%
